According to patent publication US10765114B2, “4-amino-6-(pyridyl and 2-substitutedphenyl)-picolinates and 6-amino-2-(pyridyl and 2-substitutedphenyl)-pyrimidine-4-carboxylates and their use as herbicides” (Dow AgroSciences LLC, priority 2013, dated 2020):

System: Key Broadleaf Weed and Crop Species
Assay: Post-Emergent Test II (Table 5)
Format: in vivo
Conditions: Abutilon theophrasti, post-emergence, 336 h, ABUTH: velvetleaf (Abutilon theophrasti), application rate 70 (kg ai/ha; footnote: g ai/ha), read-out: Visual Growth Reduction (%) 14 Days After Application ABUTH
In short: (§1)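 Post-emergence greenhouse spray, 1st-2nd true leaf stage; track sprayer, 187 L/ha; acetone/DMSO stock diluted in aqueous acetone/IPA/DMSO with Atplus 411F and Triton X-155; rates 1× to 1/16×; subirrigated; visual injury 0 (none) to 100% (complete kill) at 14 days.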

SMILES | pest or weed control at 70 g/ha
COc1c(N)nc(-c2ccc(C(F)(F)F)nc2)nc1C(=O)O [Compound 5, 6-amino-5-methoxy-2-(6-(trifluoromethyl)pyridin-3-yl)pyrimidine-4-carboxylic acid] | 0 to 29%

Same assay, conditions: Abutilon theophrasti, post-emergence, 336 h, ABUTH: velvetleaf (Abutilon theophrasti), application rate 140 (kg ai/ha; footnote: g ai/ha), read-out: Visual Growth Reduction (%) 14 Days After Application ABUTH

SMILES | pest or weed control at 140 g/ha
COc1c(N)nc(-c2ccc(C(F)(F)F)nc2)nc1C(=O)O [Compound 5, 6-amino-5-methoxy-2-(6-(trifluoromethyl)pyridin-3-yl)pyrimidine-4-carboxylic acid] | 0 to 29%

Same assay, conditions: Amaranthus retroflexus, post-emergence, 336 h, AMARE: redroot pigweed (Amaranthus retroflexus), application rate 70 (kg ai/ha; footnote: g ai/ha), read-out: Visual Growth Reduction (%) 14 Days After Application AMARE

SMILES | pest or weed control at 70 g/ha
COc1c(N)nc(-c2ccc(C(F)(F)F)nc2)nc1C(=O)O [Compound 5, 6-amino-5-methoxy-2-(6-(trifluoromethyl)pyridin-3-yl)pyrimidine-4-carboxylic acid] | 75 to 84%

Same assay, conditions: Amaranthus retroflexus, post-emergence, 336 h, AMARE: redroot pigweed (Amaranthus retroflexus), application rate 140 (kg ai/ha; footnote: g ai/ha), read-out: Visual Growth Reduction (%) 14 Days After Application AMARE

SMILES | pest or weed control at 140 g/ha
COc1c(N)nc(-c2ccc(C(F)(F)F)nc2)nc1C(=O)O [Compound 5, 6-amino-5-methoxy-2-(6-(trifluoromethyl)pyridin-3-yl)pyrimidine-4-carboxylic acid] | 85 to 94%

Same assay, conditions: Brassica napus, post-emergence, 336 h, BRSSS: oilseed rape, canola (Brassica napus), application rate 70 (kg ai/ha; footnote: g ai/ha), read-out: Visual Growth Reduction (%) 14 Days After Application BRSSS

SMILES | pest or weed control at 70 g/ha
COc1c(N)nc(-c2ccc(C(F)(F)F)nc2)nc1C(=O)O [Compound 5, 6-amino-5-methoxy-2-(6-(trifluoromethyl)pyridin-3-yl)pyrimidine-4-carboxylic acid] | 85 to 94%

Same assay, conditions: Brassica napus, post-emergence, 336 h, BRSSS: oilseed rape, canola (Brassica napus), application rate 140 (kg ai/ha; footnote: g ai/ha), read-out: Visual Growth Reduction (%) 14 Days After Application BRSSS

SMILES | pest or weed control at 140 g/ha
COc1c(N)nc(-c2ccc(C(F)(F)F)nc2)nc1C(=O)O [Compound 5, 6-amino-5-methoxy-2-(6-(trifluoromethyl)pyridin-3-yl)pyrimidine-4-carboxylic acid] | 85 to 94%

Same assay, conditions: Chenopodium album, post-emergence, 336 h, CHEAL: lambsquarters (Chenopodium album), application rate 70 (kg ai/ha; footnote: g ai/ha), read-out: Visual Growth Reduction (%) 14 Days After Application CHEAL

SMILES | pest or weed control at 70 g/ha
COc1c(N)nc(-c2ccc(C(F)(F)F)nc2)nc1C(=O)O [Compound 5, 6-amino-5-methoxy-2-(6-(trifluoromethyl)pyridin-3-yl)pyrimidine-4-carboxylic acid] | 0 to 29%

Same assay, conditions: Chenopodium album, post-emergence, 336 h, CHEAL: lambsquarters (Chenopodium album), application rate 140 (kg ai/ha; footnote: g ai/ha), read-out: Visual Growth Reduction (%) 14 Days After Application CHEAL

SMILES | pest or weed control at 140 g/ha
COc1c(N)nc(-c2ccc(C(F)(F)F)nc2)nc1C(=O)O [Compound 5, 6-amino-5-methoxy-2-(6-(trifluoromethyl)pyridin-3-yl)pyrimidine-4-carboxylic acid] | 45 to 59%

Same assay, conditions: Euphorbia heterophylla, post-emergence, 336 h, EPHHL: wild poinsettia (Euphorbia heterophylla), application rate 70 (kg ai/ha; footnote: g ai/ha), read-out: Visual Growth Reduction (%) 14 Days After Application EPHHL

SMILES | pest or weed control at 70 g/ha
COc1c(N)nc(-c2ccc(C(F)(F)F)nc2)nc1C(=O)O [Compound 5, 6-amino-5-methoxy-2-(6-(trifluoromethyl)pyridin-3-yl)pyrimidine-4-carboxylic acid] | 85 to 94%

Same assay, conditions: Euphorbia heterophylla, post-emergence, 336 h, EPHHL: wild poinsettia (Euphorbia heterophylla), application rate 140 (kg ai/ha; footnote: g ai/ha), read-out: Visual Growth Reduction (%) 14 Days After Application EPHHL

SMILES | pest or weed control at 140 g/ha
COc1c(N)nc(-c2ccc(C(F)(F)F)nc2)nc1C(=O)O [Compound 5, 6-amino-5-methoxy-2-(6-(trifluoromethyl)pyridin-3-yl)pyrimidine-4-carboxylic acid] | 95 to 100%

Same assay, conditions: Helianthus annuus, post-emergence, 336 h, HELAN: sunflower (Helianthus annuus), application rate 70 (kg ai/ha; footnote: g ai/ha), read-out: Visual Growth Reduction (%) 14 Days After Application HELAN

SMILES | pest or weed control at 70 g/ha
COc1c(N)nc(-c2ccc(C(F)(F)F)nc2)nc1C(=O)O [Compound 5, 6-amino-5-methoxy-2-(6-(trifluoromethyl)pyridin-3-yl)pyrimidine-4-carboxylic acid] | 60 to 74%

Same assay, conditions: Helianthus annuus, post-emergence, 336 h, HELAN: sunflower (Helianthus annuus), application rate 140 (kg ai/ha; footnote: g ai/ha), read-out: Visual Growth Reduction (%) 14 Days After Application HELAN

SMILES | pest or weed control at 140 g/ha
COc1c(N)nc(-c2ccc(C(F)(F)F)nc2)nc1C(=O)O [Compound 5, 6-amino-5-methoxy-2-(6-(trifluoromethyl)pyridin-3-yl)pyrimidine-4-carboxylic acid] | 75 to 84%

Same assay, conditions: Viola tricolor, post-emergence, 336 h, VIOTR: wild pansy (Viola tricolor), application rate 70 (kg ai/ha; footnote: g ai/ha), read-out: Visual Growth Reduction (%) 14 Days After Application VIOTR

SMILES | pest or weed control at 70 g/ha
COc1c(N)nc(-c2ccc(C(F)(F)F)nc2)nc1C(=O)O [Compound 5, 6-amino-5-methoxy-2-(6-(trifluoromethyl)pyridin-3-yl)pyrimidine-4-carboxylic acid] | 0 to 29%

Same assay, conditions: Viola tricolor, post-emergence, 336 h, VIOTR: wild pansy (Viola tricolor), application rate 140 (kg ai/ha; footnote: g ai/ha), read-out: Visual Growth Reduction (%) 14 Days After Application VIOTR

SMILES | pest or weed control at 140 g/ha
COc1c(N)nc(-c2ccc(C(F)(F)F)nc2)nc1C(=O)O [Compound 5, 6-amino-5-methoxy-2-(6-(trifluoromethyl)pyridin-3-yl)pyrimidine-4-carboxylic acid] | 30 to 44%

System: Key Grass and Sedge Weeds as well as Grass Crops
Assay: Post-Emergent Test II (Table 6)
Format: in vivo
Conditions: post-emergence, 336 h, CYPSS, 70 g ai/ha, 14 days after application, read-out: Visual Growth Reduction (%) 14 Days After Application CYPSS
In short: as §1

SMILES | pest or weed control at 70 g/ha
COc1c(N)nc(-c2ccc(C(F)(F)F)nc2)nc1C(=O)O [Compound 5, 6-amino-5-methoxy-2-(6-(trifluoromethyl)pyridin-3-yl)pyrimidine-4-carboxylic acid] | 0 to 29%

Same assay, conditions: post-emergence, 336 h, CYPSS, 140 g ai/ha, 14 days after application, read-out: Visual Growth Reduction (%) 14 Days After Application CYPSS

SMILES | pest or weed control at 140 g/ha
COc1c(N)nc(-c2ccc(C(F)(F)F)nc2)nc1C(=O)O [Compound 5, 6-amino-5-methoxy-2-(6-(trifluoromethyl)pyridin-3-yl)pyrimidine-4-carboxylic acid] | 0 to 29%

Same assay, conditions: post-emergence, 336 h, DIGSA: crabgrass (Digitaria sanguinalis), 70 g ai/ha, 14 days after application, read-out: Visual Growth Reduction (%) 14 Days After Application DIGSA

SMILES | pest or weed control at 70 g/ha
COc1c(N)nc(-c2ccc(C(F)(F)F)nc2)nc1C(=O)O [Compound 5, 6-amino-5-methoxy-2-(6-(trifluoromethyl)pyridin-3-yl)pyrimidine-4-carboxylic acid] | 60 to 74%

Same assay, conditions: post-emergence, 336 h, DIGSA: crabgrass (Digitaria sanguinalis), 140 g ai/ha, 14 days after application, read-out: Visual Growth Reduction (%) 14 Days After Application DIGSA

SMILES | pest or weed control at 140 g/ha
COc1c(N)nc(-c2ccc(C(F)(F)F)nc2)nc1C(=O)O [Compound 5, 6-amino-5-methoxy-2-(6-(trifluoromethyl)pyridin-3-yl)pyrimidine-4-carboxylic acid] | 75 to 84%

Same assay, conditions: post-emergence, 336 h, ECHSS, 70 g ai/ha, 14 days after application, read-out: Visual Growth Reduction (%) 14 Days After Application ECHSS

SMILES | pest or weed control at 70 g/ha
COc1c(N)nc(-c2ccc(C(F)(F)F)nc2)nc1C(=O)O [Compound 5, 6-amino-5-methoxy-2-(6-(trifluoromethyl)pyridin-3-yl)pyrimidine-4-carboxylic acid] | 85 to 94%

Same assay, conditions: post-emergence, 336 h, ECHSS, 140 g ai/ha, 14 days after application, read-out: Visual Growth Reduction (%) 14 Days After Application ECHSS

SMILES | pest or weed control at 140 g/ha
COc1c(N)nc(-c2ccc(C(F)(F)F)nc2)nc1C(=O)O [Compound 5, 6-amino-5-methoxy-2-(6-(trifluoromethyl)pyridin-3-yl)pyrimidine-4-carboxylic acid] | 85 to 94%

Same assay, conditions: post-emergence, 336 h, ORYSS (crop), 70 g ai/ha, 14 days after application, read-out: Visual Growth Reduction (%) 14 Days After Application ORYSS

SMILES | pest or weed control at 70 g/ha
COc1c(N)nc(-c2ccc(C(F)(F)F)nc2)nc1C(=O)O [Compound 5, 6-amino-5-methoxy-2-(6-(trifluoromethyl)pyridin-3-yl)pyrimidine-4-carboxylic acid] | 0 to 29%

Same assay, conditions: post-emergence, 336 h, ORYSS (crop), 140 g ai/ha, 14 days after application, read-out: Visual Growth Reduction (%) 14 Days After Application ORYSS

SMILES | pest or weed control at 140 g/ha
COc1c(N)nc(-c2ccc(C(F)(F)F)nc2)nc1C(=O)O [Compound 5, 6-amino-5-methoxy-2-(6-(trifluoromethyl)pyridin-3-yl)pyrimidine-4-carboxylic acid] | 0 to 29%

Same assay, conditions: post-emergence, 336 h, SETFA: giant foxtail (Setaria faberi), 70 g ai/ha, 14 days after application, read-out: Visual Growth Reduction (%) 14 Days After Application SETFA

SMILES | pest or weed control at 70 g/ha
COc1c(N)nc(-c2ccc(C(F)(F)F)nc2)nc1C(=O)O [Compound 5, 6-amino-5-methoxy-2-(6-(trifluoromethyl)pyridin-3-yl)pyrimidine-4-carboxylic acid] | 0 to 29%

Same assay, conditions: post-emergence, 336 h, SETFA: giant foxtail (Setaria faberi), 140 g ai/ha, 14 days after application, read-out: Visual Growth Reduction (%) 14 Days After Application SETFA

SMILES | pest or weed control at 140 g/ha
COc1c(N)nc(-c2ccc(C(F)(F)F)nc2)nc1C(=O)O [Compound 5, 6-amino-5-methoxy-2-(6-(trifluoromethyl)pyridin-3-yl)pyrimidine-4-carboxylic acid] | 30 to 44%

Same assay, conditions: post-emergence, 336 h, SORVU: grain sorghum (Sorghum vulgare), 70 g ai/ha, 14 days after application, read-out: Visual Growth Reduction (%) 14 Days After Application SORVU

SMILES | pest or weed control at 70 g/ha
COc1c(N)nc(-c2ccc(C(F)(F)F)nc2)nc1C(=O)O [Compound 5, 6-amino-5-methoxy-2-(6-(trifluoromethyl)pyridin-3-yl)pyrimidine-4-carboxylic acid] | 0 to 29%

Same assay, conditions: post-emergence, 336 h, SORVU: grain sorghum (Sorghum vulgare), 140 g ai/ha, 14 days after application, read-out: Visual Growth Reduction (%) 14 Days After Application SORVU

SMILES | pest or weed control at 140 g/ha
COc1c(N)nc(-c2ccc(C(F)(F)F)nc2)nc1C(=O)O [Compound 5, 6-amino-5-methoxy-2-(6-(trifluoromethyl)pyridin-3-yl)pyrimidine-4-carboxylic acid] | 0 to 29%

Same assay, conditions: post-emergence, 336 h, TRZSS (crop), 70 g ai/ha, 14 days after application, read-out: Visual Growth Reduction (%) 14 Days After Application TRZSS

SMILES | pest or weed control at 70 g/ha
COc1c(N)nc(-c2ccc(C(F)(F)F)nc2)nc1C(=O)O [Compound 5, 6-amino-5-methoxy-2-(6-(trifluoromethyl)pyridin-3-yl)pyrimidine-4-carboxylic acid] | 0 to 29%

Same assay, conditions: post-emergence, 336 h, TRZSS (crop), 140 g ai/ha, 14 days after application, read-out: Visual Growth Reduction (%) 14 Days After Application TRZSS

SMILES | pest or weed control at 140 g/ha
COc1c(N)nc(-c2ccc(C(F)(F)F)nc2)nc1C(=O)O [Compound 5, 6-amino-5-methoxy-2-(6-(trifluoromethyl)pyridin-3-yl)pyrimidine-4-carboxylic acid] | 30 to 44%

Same assay, conditions: post-emergence, 336 h, ZEAMX: maize, corn (Zea mays), 70 g ai/ha, 14 days after application, read-out: Visual Growth Reduction (%) 14 Days After Application ZEAMX

SMILES | pest or weed control at 70 g/ha
COc1c(N)nc(-c2ccc(C(F)(F)F)nc2)nc1C(=O)O [Compound 5, 6-amino-5-methoxy-2-(6-(trifluoromethyl)pyridin-3-yl)pyrimidine-4-carboxylic acid] | 0 to 29%

Same assay, conditions: post-emergence, 336 h, ZEAMX: maize, corn (Zea mays), 140 g ai/ha, 14 days after application, read-out: Visual Growth Reduction (%) 14 Days After Application ZEAMX

SMILES | pest or weed control at 140 g/ha
COc1c(N)nc(-c2ccc(C(F)(F)F)nc2)nc1C(=O)O [Compound 5, 6-amino-5-methoxy-2-(6-(trifluoromethyl)pyridin-3-yl)pyrimidine-4-carboxylic acid] | 0 to 29%

System: not given
Assay: not given
Conditions: not given

melting point | SMILES
188 °C | COc1c(N)nc(-c2ccc(C(F)(F)F)nc2)nc1C(=O)O [Compound 5, 6-amino-5-methoxy-2-(6-(trifluoromethyl)pyridin-3-yl)pyrimidine-4-carboxylic acid]
